Consider seven compounds from ChEMBL document CHEMBL1124604, “Synthesis and benzodiazepine receptor affinities of rigid analogues of 3-carboxy-beta-carbolines: demonstration that the benzodiazepine receptor recognizes preferentially the s-cis conformation of the 3-carboxy group” (J Med Chem, 1989).

pIC50: −log10 of the molar value.

The nature of this test: In vitro inhibition of [3H]flunitrazepam binding to GABA-A receptor of rat cerebral cortex membranes. Type of test: cell membranes, Membrane.
As to `CNC(=O)c1cc2c(cn1)[nH]c1ccccc12`, the pIC50 (as a rule, −log10 of the IC50, conventionally taken in molar units) was 6.71.
For `O=C1OCCc2c1[nH]cc1nc3ccccc3c2-1`, the pIC50 was 7.38.
In turn, `CCOC(=O)c1cc2c(cn1)[nH]c1ccccc12` showed a negative-log IC50 (pIC50) of 8.15.
`O=C1NCCc2c1[nH]cc1nc3ccccc3c2-1` showed a pIC50 of 6.82.
As for `CCc1c(C(=O)OC)[nH]cc2nc3ccccc3c1-2`, the pIC50 was 7.57.
`CCc1c(C(=O)NC)[nH]cc2nc3ccccc3c1-2` gave a pIC50 of under 5.00.
Regarding `COC(=O)c1cc2c(cn1)[nH]c1ccccc12` [BETA-CCM], the pIC50 is 8.46.
